Some test systems named below: MOLT-4; M14; SR; MCF7; NCI-H23; ACHN; HCT-15; OVCAR-5; UACC-62; OVCAR-8; RPMI-8226; NCI-H522; SW-620; HCC 2998; A549; Malme-3M; IGROV-1; SK-MEL-28; SK-MEL-2; NCI-H460.
What all share (experiment): inhibition of tumour cell growth, NCI panel, 48 h

Structures are written as SMILES.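 Five concentrations, 48 hours, 96-well plates. The concentration for 50% growth inhibition is given as GI50.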 Active and inactive are the calls of the source. No stated cut-off is given here; in the data, active = GI50 up to about 1.1 µM and inactive = higher. A value given as a limit tells only on which side of the number the result lay.

Regarding `Cc1ccc(CS(=O)(=O)C/N=C2\Sc3ccccc3N\C2=C/C(=O)c2ccc(Cl)cc2)cc1`, the GI50 in the test with MOLT-4 was 6.08 µM (inactive); with M14, > 10 µM (inactive); in the test on SR, > 10 µM (inactive); in the test on MCF7, 0.703 µM (active); with NCI-H23, > 10 µM (inactive); with ACHN it was > 10 µM (inactive). Moreover, the GI50 was greater than 10 µM in the test on HCT-15; > 10 µM (inactive) with OVCAR-5; > 10 µM (inactive) in the test with UACC-62; > 10 µM (inactive) in the test on OVCAR-8; > 10 µM (inactive) in the test with RPMI-8226; > 10 µM (inactive) in the test with NCI-H522. Besides, the GI50 in the test on SW-620, in the test with HCC 2998, with A549, in the test on Malme-3M, in the test with IGROV-1 and in the test with SK-MEL-28 was > 10 µM (inactive) throughout.
As to `Cc1cc(C)n(CN(Cn2nc(C)cc2C)C2CCCCC2)n1`, the GI50 with M14 was 20.3 µM (inactive); with SR, 30.1 µM (inactive); in the test with MCF7 it was 32.6 µM (inactive); with SK-MEL-2 it was 17.6 µM (inactive); in the test on NCI-H23, 24 µM (inactive); with ACHN, 23.4 µM (inactive). The GI50 in the test with HCT-15 was 20.6 µM; in the test on OVCAR-5, 22.9 µM (inactive); with UACC-62, 21.5 µM (inactive); in the test with OVCAR-8, 25.7 µM (inactive); in the test with NCI-H460 it was 61.8 µM (inactive); with RPMI-8226, 18.6 µM (inactive). Also, the GI50 with NCI-H522 is 20.7 µM (inactive); with SW-620 it was 29.7 µM (inactive); in the test on HCC 2998 it was 14.6 µM (inactive); in the test on A549 it was 66.2 µM (inactive); with Malme-3M, 20.5 µM (inactive); with IGROV-1 it was 20.1 µM (inactive). Also, in the test with SK-MEL-28, the GI50 was 20.7 µM (inactive).
Take `COc1cc2c(/C=C3/C(=O)N(C)c4ccccc43)c(Cl)[nH]c2cc1C`: the GI50 in the test on MOLT-4 was 0.282 µM (active); in the test with M14 it was 0.195 µM (active); with SR, 0.274 µM (active); in the test with MCF7, 0.0895 µM (active); with SK-MEL-2, 0.325 µM (active); in the test with NCI-H23, 0.203 µM (active). Further, the GI50 with ACHN was 0.51 µM (active); in the test on HCT-15, 0.13 µM; with OVCAR-5, 0.581 µM (active); in the test with UACC-62, 0.179 µM (active); in the test with OVCAR-8, 0.324 µM (active); in the test with NCI-H460, 0.295 µM (active). The GI50 was 0.249 µM (active) in the test on RPMI-8226; 0.183 µM (active) in the test with NCI-H522; 0.33 µM (active) in the test on SW-620; 0.101 µM (active) in the test on HCC 2998; 0.361 µM (active) in the test with A549; 0.167 µM (active) in the test on IGROV-1. In addition, the GI50 with SK-MEL-28 was 8.38 µM (inactive).
As for `CNc1ncnc2c1ncn2C1C=CC(COS(N)(=O)=O)C1` (centres undefined), the GI50 with MOLT-4, in the test on M14, with SR, with MCF7, in the test on SK-MEL-2 and in the test with NCI-H23 was > 100 µM (inactive) each time. Moreover, the GI50 was > 100 µM (inactive) with ACHN; greater than 100 µM in the test with HCT-15; > 100 µM (inactive) with UACC-62; > 100 µM (inactive) in the test with OVCAR-8; > 100 µM (inactive) in the test with NCI-H460; > 100 µM (inactive) in the test on RPMI-8226. Moreover, the GI50 in the test with NCI-H522, in the test with SW-620, in the test with HCC 2998, in the test with A549, with Malme-3M and with IGROV-1 was > 100 µM (inactive) throughout. Further, in the test with SK-MEL-28, the GI50 was > 100 µM (inactive).
Turning to `CCOC(=O)c1c(SCCCN2CCCCC2)n(-c2ccccc2)c(=S)n(-c2ccccc2)c1=O`, the GI50 in the test on MOLT-4 is 7.26 µM (inactive); in the test on M14, 16.5 µM (inactive); in the test on SR it was 22 µM (inactive); in the test with MCF7, 12.1 µM (inactive); in the test on SK-MEL-2, 16.7 µM (inactive); in the test on NCI-H23, 18.6 µM (inactive). The GI50 with ACHN is 20.6 µM (inactive); in the test with HCT-15, 17.4 µM; in the test with OVCAR-5, 17.7 µM (inactive); with UACC-62, 4.28 µM (inactive); in the test on OVCAR-8, 19.3 µM (inactive); in the test on RPMI-8226 it was 6.67 µM (inactive). The GI50 with NCI-H522 is 19.3 µM (inactive); with SW-620, 17.7 µM (inactive); with HCC 2998, 17.3 µM (inactive); in the test on A549, 17.3 µM (inactive); in the test on Malme-3M, 16.3 µM (inactive); in the test on SK-MEL-28, 17.4 µM (inactive).
As to `N=C(N)Nc1ccc(CC(N)NCC(=O)O)cc1` (centres undefined), the GI50 with MOLT-4 is > 25 µM (inactive); in the test with M14 it was > 25 µM (inactive); in the test on SR it was 20 µM (inactive); with MCF7, > 25 µM (inactive); with SK-MEL-2, > 25 µM (inactive); in the test with NCI-H23, > 25 µM (inactive). The GI50 in the test on ACHN is > 25 µM (inactive); in the test with HCT-15, greater than 25 µM; in the test with OVCAR-5 it was > 25 µM (inactive); in the test on UACC-62, > 25 µM (inactive); in the test with OVCAR-8, > 25 µM (inactive); in the test on RPMI-8226 it was > 25 µM (inactive). Further, the GI50 in the test on NCI-H522, with SW-620, with HCC 2998, in the test on A549, in the test on Malme-3M and in the test on IGROV-1 was > 25 µM (inactive) throughout. For the same molecule, the GI50 in the test on SK-MEL-28 was > 25 µM (inactive).
For the molecule `Cc1cn(C2CC(N=[N+]=[N-])C(CO[Si](C)(C)C(C)(C)C)O2)c(=O)[nH]c1=O` (centres undefined), the GI50 with MOLT-4 is 26.7 µM (inactive); with M14, 21.4 µM (inactive); in the test on SR, 23.3 µM (inactive); with MCF7, 18 µM (inactive); in the test with SK-MEL-2, 15.2 µM (inactive); with NCI-H23 it was 21.1 µM (inactive). Also, the GI50 in the test with ACHN is 21.8 µM (inactive); with HCT-15, 18.3 µM; in the test on OVCAR-5 it was 23 µM (inactive); with UACC-62 it was 14.6 µM (inactive); with OVCAR-8, 19.4 µM (inactive); with RPMI-8226 it was 17.9 µM (inactive). The GI50 is 16.8 µM (inactive) with NCI-H522; 16.9 µM (inactive) in the test on SW-620; 12.6 µM (inactive) with HCC 2998; 27.2 µM (inactive) with A549; 14.3 µM (inactive) in the test on Malme-3M; 18.7 µM (inactive) with IGROV-1.
`COc1ccc(/C=c2\s/c(=C3/SC(=S)N(c4ccccc4)C3=O)n(-c3ccccc3)c2=O)cc1`: the GI50 was 29.8 µM (inactive) in the test on MOLT-4; > 100 µM (inactive) in the test on M14; 15.3 µM (inactive) in the test on SR; 0.264 µM (active) in the test with MCF7; 26.9 µM (inactive) in the test with NCI-H23; 13.6 µM (inactive) with ACHN. For the same molecule, the GI50 with HCT-15 is greater than 100 µM; with OVCAR-5 it was > 100 µM (inactive); with UACC-62, 61 µM (inactive); in the test on OVCAR-8 it was > 100 µM (inactive); in the test on NCI-H460, 12.8 µM (inactive); in the test on RPMI-8226, > 100 µM (inactive). Also, the GI50 with NCI-H522 is > 100 µM (inactive); in the test with SW-620, > 100 µM (inactive); in the test with HCC 2998, > 100 µM (inactive); with A549, > 100 µM (inactive); with Malme-3M, > 100 µM (inactive); in the test on IGROV-1, 19.7 µM (inactive). In the test with SK-MEL-28, the GI50 was > 100 µM (inactive).
